In ChEMBL document CHEMBL4011610, “Design, synthesis and optimization of 7-substituted-pyrazolo[4,3-b]pyridine ALK5 (activin receptor-like kinase 5) inhibitors” (Bioorg Med Chem Lett, 2017):

Columns and labels:
[1] = biological target: T1, TGF-beta receptor type-1 (Homo sapiens, UniProt P36897); experiment: Inhibition of recombinant N-terminal GST tagged human ALK5 (200 to 503 residues) expressed in baculovirus expression system using FAM-NH2-KVLTQMGSPSIRCSS[PO4]VS peptide as substrate after 90 mins by LanthaScreen TR-FRET assay
T1 sequence (P36897 whole entry): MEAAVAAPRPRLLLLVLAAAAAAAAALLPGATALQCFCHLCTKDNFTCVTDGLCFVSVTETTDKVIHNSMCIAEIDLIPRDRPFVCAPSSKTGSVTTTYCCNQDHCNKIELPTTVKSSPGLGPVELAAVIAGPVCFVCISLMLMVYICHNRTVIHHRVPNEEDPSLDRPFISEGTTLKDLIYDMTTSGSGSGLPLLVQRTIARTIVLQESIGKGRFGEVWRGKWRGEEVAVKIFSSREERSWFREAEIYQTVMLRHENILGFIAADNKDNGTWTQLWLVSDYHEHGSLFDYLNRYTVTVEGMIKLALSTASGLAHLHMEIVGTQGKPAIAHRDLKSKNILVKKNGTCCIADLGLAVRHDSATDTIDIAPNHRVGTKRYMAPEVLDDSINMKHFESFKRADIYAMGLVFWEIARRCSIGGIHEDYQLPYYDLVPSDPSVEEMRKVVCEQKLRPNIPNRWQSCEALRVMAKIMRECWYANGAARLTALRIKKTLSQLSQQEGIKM

[2] = Hepatic extraction ratio in human; assay type: ADME; settings: read-out: ERH
[3] = Hepatic extraction ratio in rat; assay type: ADME; settings: read-out: ERH
[4] = biological target: T1, TGF-beta receptor type-1; experiment: Inhibition of ALK5 (unknown origin) expressed in SBE-bla HEK293T cells assessed as decrease in TGFbeta1-induced Smad2/3 phosphorylation by beta lactamase reporter gene assay; assay type: cell-based
[5] = biological target: T1, TGF-beta receptor type-1; experiment: Inhibition of ALK5 in human Calu6 cells assessed as reduction in Smad2/3 phosphorylation; assay type: cell-based
[6] = biological target: hERG (KCNH2) (Homo sapiens, UniProt Q12809); experiment: Inhibition of human ERG expressed in CHOK1 cells at 10 uM by automated whole cell patch clamp Qpatch method relative to control; assay type: cell-based; settings: CHO-K1 cells expressing human ERG
hERG (KCNH2), sequence (Q12809 whole entry): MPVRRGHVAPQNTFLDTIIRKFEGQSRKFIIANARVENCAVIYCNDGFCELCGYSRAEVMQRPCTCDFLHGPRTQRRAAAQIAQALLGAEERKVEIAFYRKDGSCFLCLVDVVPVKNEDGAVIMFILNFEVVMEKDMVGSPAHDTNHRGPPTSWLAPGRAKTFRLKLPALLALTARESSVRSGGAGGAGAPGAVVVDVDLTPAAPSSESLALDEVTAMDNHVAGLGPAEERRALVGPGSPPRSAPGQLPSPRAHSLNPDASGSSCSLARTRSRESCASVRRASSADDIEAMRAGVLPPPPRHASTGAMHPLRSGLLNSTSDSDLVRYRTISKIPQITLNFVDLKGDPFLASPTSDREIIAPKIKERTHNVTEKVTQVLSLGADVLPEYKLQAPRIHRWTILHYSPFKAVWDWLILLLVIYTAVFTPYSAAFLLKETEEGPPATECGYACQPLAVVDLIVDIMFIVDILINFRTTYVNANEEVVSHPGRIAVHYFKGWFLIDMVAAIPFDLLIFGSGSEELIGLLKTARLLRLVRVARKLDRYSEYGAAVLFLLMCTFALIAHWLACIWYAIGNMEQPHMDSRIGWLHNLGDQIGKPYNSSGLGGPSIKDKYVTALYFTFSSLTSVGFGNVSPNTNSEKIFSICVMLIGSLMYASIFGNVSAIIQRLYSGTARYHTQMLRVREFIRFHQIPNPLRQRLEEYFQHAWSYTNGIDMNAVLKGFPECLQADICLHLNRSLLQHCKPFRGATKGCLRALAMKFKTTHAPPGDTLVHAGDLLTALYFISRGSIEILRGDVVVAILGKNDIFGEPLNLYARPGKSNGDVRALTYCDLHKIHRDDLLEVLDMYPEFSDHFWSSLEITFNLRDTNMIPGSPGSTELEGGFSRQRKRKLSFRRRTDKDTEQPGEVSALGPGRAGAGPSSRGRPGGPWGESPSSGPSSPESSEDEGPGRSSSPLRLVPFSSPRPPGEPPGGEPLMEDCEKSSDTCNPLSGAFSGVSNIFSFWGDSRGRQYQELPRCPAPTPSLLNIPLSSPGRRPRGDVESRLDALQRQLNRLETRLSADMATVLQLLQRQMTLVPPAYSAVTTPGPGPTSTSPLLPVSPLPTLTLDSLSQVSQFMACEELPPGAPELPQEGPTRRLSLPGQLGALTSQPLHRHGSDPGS

[7] = biological target: Cytochrome P450 3A4 (Homo sapiens, UniProt P08684); experiment: Inhibition of CYP3A4 (unknown origin); assay type: ADME
Cytochrome P450 3A4, sequence (P08684 whole entry): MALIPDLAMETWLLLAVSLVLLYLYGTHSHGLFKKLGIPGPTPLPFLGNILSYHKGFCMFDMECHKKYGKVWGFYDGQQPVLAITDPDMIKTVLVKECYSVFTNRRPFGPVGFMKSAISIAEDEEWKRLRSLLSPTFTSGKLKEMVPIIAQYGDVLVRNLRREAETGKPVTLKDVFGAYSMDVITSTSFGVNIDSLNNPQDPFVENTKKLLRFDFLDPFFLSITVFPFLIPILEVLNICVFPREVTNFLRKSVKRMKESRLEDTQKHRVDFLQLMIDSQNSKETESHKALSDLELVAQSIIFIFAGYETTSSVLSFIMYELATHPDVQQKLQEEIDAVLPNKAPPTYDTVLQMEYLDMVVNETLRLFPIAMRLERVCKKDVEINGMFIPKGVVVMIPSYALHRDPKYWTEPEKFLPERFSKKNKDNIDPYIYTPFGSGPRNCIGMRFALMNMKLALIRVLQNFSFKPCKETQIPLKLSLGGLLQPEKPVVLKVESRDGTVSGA

[8] = Oral bioavailability in rat; assay type: ADME, organism-based; settings: in vivo
[9] = biological target: T2, Cytochrome P450 2C8 (Homo sapiens, UniProt P10632); experiment: Inhibition of CYP2C8 (unknown origin); assay type: ADME
T2 sequence (P10632 whole entry): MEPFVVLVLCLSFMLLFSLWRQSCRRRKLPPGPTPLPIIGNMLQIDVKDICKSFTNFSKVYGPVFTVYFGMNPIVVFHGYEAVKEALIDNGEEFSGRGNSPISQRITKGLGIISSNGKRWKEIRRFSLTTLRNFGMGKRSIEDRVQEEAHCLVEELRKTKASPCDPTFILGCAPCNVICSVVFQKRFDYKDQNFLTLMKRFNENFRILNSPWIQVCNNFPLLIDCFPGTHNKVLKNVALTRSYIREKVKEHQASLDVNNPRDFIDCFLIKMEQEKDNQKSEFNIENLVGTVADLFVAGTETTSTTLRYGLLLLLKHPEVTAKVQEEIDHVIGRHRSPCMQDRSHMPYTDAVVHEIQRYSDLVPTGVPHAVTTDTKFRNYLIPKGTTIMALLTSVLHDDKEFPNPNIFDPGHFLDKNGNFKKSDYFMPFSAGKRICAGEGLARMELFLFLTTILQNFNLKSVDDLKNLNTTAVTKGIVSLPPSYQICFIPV

[10] = Clearance in rat microsomes; assay type: ADME, Microsome
[11] = Clearance in human microsomes; assay type: ADME, Microsome
[12] = Clearance in rat; assay type: ADME; settings: in vivo

Row | SMILES | IC50 [1] [nM] | hepatic extraction ratio [2] | hepatic extraction ratio [3] | EC50 [4] [nM] | EC50 [5] [nM] | further results
1 | COc1cccc2nccc(Nc3ccnc(-c4cc(C)ccc4F)c3)c12 | 25.1 | – | – | – | – | –
2 | CCNC(=O)n1ncc2nccc(Nc3ccnc(-c4cc(F)ccc4F)c3)c21 | – | 0.53 | 0.29 | 31.6 | 158 | –
3 | COc1cccc2nccc(Nc3ccnc(-c4cccc(Cl)c4)c3)c12 | 316 | – | – | – | – | –
4 | CCc1cnc(-c2cc(Cl)ccc2F)cc1Nc1ccnc2cccc(OC)c12 | 25.1 | – | – | – | – | –
5 | Cc1cnc(-c2cc(Cl)ccc2F)cc1Nc1ccnc2cn(CC(N)=O)nc12 | – | 0.46 | 0.56 | 12.6 | 31.6 | inhibition at 10 µM [6]: 41 to 59%; IC50 [7]: > 50100 nM
6 | NC(=O)Cn1ncc2nccc(Nc3ccnc(-c4cc(F)ccc4F)c3)c21 | – | 0.53 | 0.57 | 200 | 1260 | –
7 | COc1cccc2nccc(Nc3ccnc(-c4nc(C)ccc4F)c3)c12 | 39.8 | – | – | – | – | –
8 | COc1cccc2nccc(Nc3ccnc(-c4cc(Cl)ccc4F)c3)c12 | 20 | – | – | – | – | –
9 | COc1cccc2nccc(Nc3cc(-c4cc(Cl)ccc4F)ncc3C3CC3)c12 | 50.1 | – | – | – | – | –
10 | Fc1ccc(Cl)cc1-c1cc(Nc2ccnc3cn(CC4CCNCC4)nc23)ccn1 | 100 | 0.36 | 0.16 | 1000 | – | –
11 | Fc1ccc(Cl)cc1-c1cc(Nc2ccnc3cnn(CC4CCNCC4)c23)ccn1 | – | 0.91 | 0.93 | – | – | –
12 | Cc1cnc(-c2cc(F)ccc2F)cc1Nc1ccnc2cn(CC(C)O)nc12 (centres undefined) | – | 0.79 | 0.68 | 126 | 158 | –
13 | COc1cccc2nccc(Nc3cc(-c4cccc(Cl)c4)ncc3C)c12 | 31.6 | – | – | – | – | –
14 | Cc1cnc(-c2cc(Cl)ccc2F)cc1Nc1ccnc2cn[nH]c12 | 15.8 | 0.57 | 0.75 | 31.6 | – | IC50 [7]: 3160 nM; IC50 [9]: 398 nM
15 | Cc1cnc(-c2cc(F)ccc2F)cc1Nc1ccnc2cn[nH]c12 | – | 0.74 | 0.84 | 7.94 | 31.6 | IC50 [7]: 1580 nM; IC50 [9]: 316 nM
16 | COc1cccc2nccc(Nc3ccnc(-c4ccccc4)c3)c12 | 631 | – | – | – | – | –
17 | Cc1cnc(-c2cc(Cl)ccc2F)cc1Nc1ccnc2cnn(CC(N)=O)c12 | – | 0.54 | 0.44 | 20 | 31.6 | clearance [12]: 42 mL/min/kg; inhibition at 10 µM [6]: 41 to 59%; bioavailability [8]: 71%; IC50 [7]: 12600 nM
18 | CNC(=O)n1ncc2nccc(Nc3cc(-c4cc(F)ccc4F)ncc3C)c21 | – | < 0.23 | 0.2 | 25.1 | 20 | –
19 | NC(=O)Cn1cc2nccc(Nc3ccnc(-c4cc(F)ccc4F)c3)c2n1 | – | 0.44 | 0.42 | 251 | 1580 | –

Further lines, with some results ahead:

Row | IC50 [1] [nM] | hepatic extraction ratio [2] | hepatic extraction ratio [3] | EC50 [4] [nM] | EC50 [5] [nM] | SMILES | further results
20 | 15.8 | – | – | – | – | Cc1ccc(F)c(-c2cc(Nc3ccnc4cn[nH]c34)ccn2)c1 | –
21 | 7.94 | 0.3 | 0.3 | 100 | 501 | Cc1ccc(F)c(-c2cc(Nc3ccnc4cnn(C[C@@H](C)O)c34)c(C)cn2)n1 | inhibition at 10 µM [6]: 42%; bioavailability [8]: 38%
22 | 15.8 | 0.51 | 0.52 | 31.6 | – | CNC(=O)n1ncc2nccc(Nc3cc(-c4cc(Cl)ccc4F)ncc3C)c21 | –
23 | 10 | – | – | 15.8 | 158 | CCn1cc2nccc(Nc3cc(-c4cc(C)ccc4F)ncc3C)c2n1 | –
24 | 3.16 | 0.64 | 0.54 | 7.94 | 20 | Cc1cnc(-c2cc(F)ccc2F)cc1Nc1ccnc2cnn(CC(C)O)c12 (centres undefined) | –
25 | 2.51 | 0.57 | 0.74 | – | 31.6 | Cc1ccc(F)c(-c2cc(Nc3ccnc4cn[nH]c34)c(C)cn2)n1 | IC50 [7]: 6310 nM; IC50 [9]: 2510 nM
26 | 3.16 | 0.57 | 0.31 | 25.1 | 63.1 | CNC(=O)n1ncc2nccc(Nc3ccnc(-c4cc(Cl)ccc4F)c3)c21 | –
27 | 2.51 | 0.55 | 0.27 | 20 | 126 | CNC(=O)n1ncc2nccc(Nc3ccnc(-c4cc(F)ccc4F)c3)c21 | –
28 | 12.6 | – | – | – | – | COc1cccc2nccc(Nc3cc(-c4cc(Cl)ccc4F)ncc3C)c12 | inhibition at 10 µM [6]: 94%; CLint scaled [10]: 302 mL/min/kg; CLint scaled [11]: 86 mL/min/kg
29 | 5.01 | – | – | 31.6 | 200 | Cc1cccc(-c2cc(Nc3ccnc4cn[nH]c34)c(C)cn2)n1 | –
30 | 6.31 | – | – | 50.1 | – | Fc1ccc(Cl)cc1-c1cc(Nc2ccnc3cn[nH]c23)ccn1 | –
31 | 12.6 | – | – | – | – | COc1cccc2nccc(Nc3cc(-c4cc(C)ccc4F)ncc3C)c12 | –
32 | 12.6 | – | – | 20 | – | Cc1ccc(F)c(-c2cc(Nc3ccnc4cnn(CCO)c34)c(C)cn2)n1 | –
33 | 12.6 | 0.52 | 0.54 | 100 | – | NC(=O)Cn1cc2nccc(Nc3ccnc(-c4cc(Cl)ccc4F)c3)c2n1 | inhibition at 10 µM [6]: 41 to 59%; IC50 [7]: 12600 nM
